SMILES strings stand for the structures.

For 18 molecules, IC50 and EC50 results are on record in US8703811B2, “Small molecule inhibitors of Plasmodium falciparum dihydroorotate dehydrogenase” (Genzyme Corporation, priority 2008, dated 2014).

For test [1], the target named is pfDHODH (Plasmodium falciparum (isolate 3D7), UniProt Q08210). Description: DHODH chromogen reduction (DCIP) assay, pfDHODH. The format is biochemical, P. falciparum. As to conditions: Table 2b; read-out: pfDHODH IC50. An excerpt: Type 2 DHODH activity was monitored with either the direct assay measuring the formation of orotate or via a chromogen reduction assay using DCIP. Although the extinction coefficient and absorption wavelength are preferable for the chromogen reduction assay, the inorganic electron acceptor DCIP can be utilized by DHODH as the final electron acceptor in lieu of CoQn when the endogenous substrate is at a low concentration. As such, the direct assay was used to measure the binding affinity of pfDHODH to CoQD and L-DHO. The enzymatic reaction was performed by varying the L-DHO concentration (1-400 μM) or CoQD concentration (1-200 μM) while keeping the other substrate constant and in excess.
Substrate specificity and enzyme inhibition data was analyzed with GraphPad Prism Version 4 for Windows (GraphPad Software). Kinetic constants were calculated by non-linear regression fitting of the data to the Michaelis-Menten equation [36]. IC50 values were determined by non-linear regression fitting of the data to Equation 1: […]

Test [2] deals with P. falciparum 3D7. The test can be described thus: Inhibition of in vitro P. falciparum culture, [3H]-hypoxanthine uptake, 3D7. Type of test: cell-based. As to conditions: Plasmodium falciparum, 3D7, Table 2b; read-out: 3D7 EC50. How it is done: (§1) P. falciparum strains D10, 3D7, HB3, and Dd2 were obtained from the Malaria Research and Reference Reagent Resource Center (Manassas, Va.). The parasite strains were maintained in vitro by method of Trager and Jensen. The inhibition of P. falciparum growth in the presence of drug was assessed by the relative reduction of [^3H]-hypoxanthine uptake as previously described. Inhibition data were fitted to Equation 1 using non-linear regression analysis except that the relative velocity of parasite growth was substituted for the rate of product formation.

Test [3] has as its system P. falciparum Dd2. Description: Inhibition of in vitro P. falciparum culture, [3H]-hypoxanthine uptake, Dd2. The format is cell-based. The note with it: Plasmodium falciparum, DD2, Table 2b; read-out: Dd2 EC50. How it is done:
as §1

pfDHODH, sequence (Q08210 159-565 limits assumed): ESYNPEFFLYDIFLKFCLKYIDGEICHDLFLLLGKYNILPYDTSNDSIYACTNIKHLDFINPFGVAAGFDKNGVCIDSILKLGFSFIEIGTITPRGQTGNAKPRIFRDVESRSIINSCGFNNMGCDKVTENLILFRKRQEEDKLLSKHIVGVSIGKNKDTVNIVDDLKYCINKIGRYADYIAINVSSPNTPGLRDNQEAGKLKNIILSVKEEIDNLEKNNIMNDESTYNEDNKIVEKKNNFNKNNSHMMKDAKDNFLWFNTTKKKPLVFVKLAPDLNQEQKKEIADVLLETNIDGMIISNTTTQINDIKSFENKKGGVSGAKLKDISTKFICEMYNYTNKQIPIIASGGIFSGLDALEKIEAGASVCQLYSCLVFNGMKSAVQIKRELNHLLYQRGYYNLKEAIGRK

In the case of `CCCNC(=O)c1ccc(N2CCOCC2)s1` [Compound 13, 5-morpholino-N-propylthiophene-2-carboxamide], in test [1], the half-inhibitory concentration (IC50) (in general, the concentration that gives 50% inhibition) was more than 250 µM. The EC50 in test [2] and in test [3] was more than 10 µM each time.
Turning to `CCCNC(=O)c1ccc(N2CCCC2)s1` [Compound 14, N-propyl-5-(pyrrolidin-1-yl)thiophene-2-carboxamide], in test [1], the half-maximal inhibitory concentration (IC50) is more than 250 µM. Besides, the concentration for a half-maximal effect (EC50) in test [2] and in test [3] was more than 10 µM each time.
On to `CCCNC(=O)c1ccc(-n2ccnc2)s1` [Compound 15, 5-(1H-imidazol-1-yl)-N-propylthiophene-2-carboxamide], for which the concentration for half-maximal inhibition (IC50) in test [1] is 165 µM. Besides, the EC50 in test [2] and in test [3] was more than 10 µM throughout.
As to `CCCNC(=O)c1ccc(-n2cnc3cncnc32)s1` [Compound 16, N-propyl-5-(9H-purin-9-yl)thiophene-2-carboxamide], the EC50 in test [2] and in test [3] was more than 10 µM each time.
As to `CCCNC(=O)c1ccc(N2CC(C)Sc3ccccc32)s1` (centres unmarked) [Compound 17, 5-(2-methyl-2H-benzo[b][1,4]thiazin-4(3H)-yl)-N-propylthiophene-2-carboxamide], the 50% inhibitory concentration (IC50) in test [1] was determined as 19.1 µM. Also, the concentration giving a half-maximal response (EC50) in test [2] and in test [3] was more than 10 µM each time.
Turning to `CCCNC(=O)c1ccc(N2CCSc3ccccc32)s1` [Compound 18, 5-(2H-benzo[b][1,4]thiazin-4(3H)-yl)-N-propylthiophene-2-carboxamide], the half-inhibitory concentration (IC50) in test [1] was 9.2 µM. Also, the EC50 in test [2] and in test [3] was more than 10 µM each time.
On to `CCCNC(=O)c1ccc(N2CCOc3ccc(Cl)cc32)s1` [Compound 19, 5-(6-chloro-2H-benzo[b][1,4]oxazin-4(3H)-yl)-N-propylthiophene-2-carboxamide], for which the half-maximal inhibitory concentration (IC50) in test [1] turned out to be 7.5 µM. In addition, the EC50 in test [2] and in test [3] was more than 10 µM throughout.
As to `CCCNC(=O)c1ccc(N2CCc3ccccc32)s1` [Compound 20, 5-(indolin-1-yl)-N-propylthiophene-2-carboxamide], the IC50 in test [1] was more than 30 µM. For the same molecule, the half-maximal effective concentration (EC50) in test [2] and in test [3] was more than 10 µM each time.
In the case of `CCCNC(=O)c1ccc(N2CCSc3ncccc32)s1` [Compound 21, 5-(2,3-dihydro-1H-pyrido[2,3-b][1,4]thiazin-1-yl)-N-propylthiophene-2-carboxamide], the concentration for half-maximal inhibition (IC50) in test [1] came out at 13.8 µM. Further, the half-maximal effective concentration (EC50) in test [2] and in test [3] was more than 10 µM in each case.
In the case of `CCCNC(=O)c1ccc(N2Cc3cccc(OC)c3Oc3ncccc32)s1` [Compound 22, 5-(10-methoxybenzo[f]pyrido[2,3-b][1,4]oxazepin-5(6H)-yl)-N-propylthiophene-2-carboxamide], the IC50 in test [1] is more than 30 µM. The EC50 in test [2] and in test [3] was more than 10 µM in each case.
As to `O=C(c1ccc(-n2cnc3ccccc32)s1)N1CCCC1` [Compound 26], in test [1], the IC50 is more than 30 µM. The figures for the EC50 in test [2] and in test [3] were 10 µM and 20 µM, respectively.
For `CN(C)C(=O)c1ccc(-n2cnc3ccccc32)s1` [Compound 27] the same measures were more than 30 µM, more than 40 µM and more than 40 µM.
Take `Cc1nc2cc(F)c(F)cc2n1-c1ccc(C(=O)NC2CC2)s1` [Compound 95]: in test [1], the 50% inhibitory concentration (IC50) was 0.105 µM.
Consider `Cc1nc(-c2ccc(Cl)cc2)cn1-c1ccc(C(=O)NC2CC2)s1` [Compound 96], for which, in test [1], the IC50 stood at 0.252 µM.
With `Cc1nc2cc(-c3ccccc3)ccc2n1-c1ccc(C(=O)NC2CC2)s1` [Compound 97], the IC50 in test [1] amounted to 0.178 µM.
On the same count and under the same terms, the same measure for `Cc1nc2ccc(-c3ccccc3)cc2n1-c1ccc(C(=O)NC2CC2)s1` [Compound 98]: 0.089 µM; for `O=C(NC1CC1)c1ccc(-n2nnc3ccccc32)s1` [Compound 99, 5-(1H-benzo[d][1,2,3]triazol-1-yl)-N-cyclopropylthiophene-2-carboxamide]: 28 µM.
Same read-out and setting: the same measure for `O=C(NC1CC1)c1ccc(-n2ncc3ccccc32)s1` [Compound 100, N-cyclopropyl-5-(1H-indazol-1-yl)thiophene-2-carboxamide]: more than 30 µM.
